Results reported in PubChem BioAssay (NCI).
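Each compound was tested at five concentrations against cells in 96-well plates for 48 hours. Here, GI50 denotes the concentration required for 50% inhibition of growth. TGI: total growth inhibition.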

Assays:
Assay in all cases: NCI-60 cell line screen, 48 h
HOP-18 NSCLC = system: HOP-18 NSCLC
RXF-631 renal = system: RXF-631 renal
RPMI-8226 leukemia = system: RPMI-8226 leukemia
KM20L2 colon = system: KM20L2 colon
LXFL 529 NSCLC = system: LXFL 529 NSCLC
SNB-75 CNS = system: SNB-75 CNS
OVCAR-5 ovarian = system: OVCAR-5 ovarian
SK-MEL-2 melanoma = system: SK-MEL-2 melanoma
SNB-78 CNS = system: SNB-78 CNS
TK-10 renal = system: TK-10 renal
CAKI-1 renal = system: CAKI-1 renal
XF 498 CNS = system: XF 498 CNS
DMS 114 small cell lung = system: DMS 114 small cell lung
SF-539 CNS = system: SF-539 CNS
DMS 273 small cell lung = system: DMS 273 small cell lung
K-562 leukemia = system: K-562 leukemia
M19-MEL melanoma = system: M19-MEL melanoma
DLD-1 colon = system: DLD-1 colon
HS 578T breast = system: HS 578T breast

| Compound | TGI (HOP-18 NSCLC) [µM] | TGI (RXF-631 renal) [µM] | TGI (RPMI-8226 leukemia) [µM] | TGI (KM20L2 colon) [µM] | TGI (LXFL 529 NSCLC) [µM] | TGI (SNB-75 CNS) [µM] | TGI (OVCAR-5 ovarian) [µM] | TGI (SK-MEL-2 melanoma) [µM] | TGI (SNB-78 CNS) [µM] | TGI (TK-10 renal) [µM] | TGI (CAKI-1 renal) [µM] | TGI (XF 498 CNS) [µM] | TGI (DMS 114 small cell lung) [µM] | TGI (SF-539 CNS) [µM] | TGI (DMS 273 small cell lung) [µM] | TGI (K-562 leukemia) [µM] | TGI (M19-MEL melanoma) [µM] | TGI (DLD-1 colon) [µM] | TGI (HS 578T breast) [µM] | GI50 (K-562 leukemia) [µM] |
| --- | --- | --- | --- | --- | --- | --- | --- | --- | --- | --- | --- | --- | --- | --- | --- | --- | --- | --- | --- | --- |
| COc1cc([C@@H]2c3cc4c(cc3[C@@H](NC(=O)c3ccc(C(C)=O)cc3)C3COC(=O)[C@@H]32)OCO4)cc(OC)c1O (stereo not given in full) | > 100 | 10.6 | 14.5 | 8.05 | > 100 | 4.99 | 7.69 | 8.03 | 85 | 21.8 | 20.3 | 5.7 | 4.74 | 1.89 | 7.62 | > 100 | 25.5 | 17.7 | – | – |
| CC(=O)C1CC2(c3ccccc3)C(=O)c3ccccc3N2O1 (stereo not given) | > 100 | – | > 100 | > 100 | > 100 | > 100 | – | – | > 100 | – | – | > 100 | > 100 | > 100 | > 100 | > 100 | > 100 | > 100 | – | – |
| CC1(Br)C(=O)NC(=O)N([C@H]2C[C@H](O)[C@@H](CO)O2)C1N=[N+]=[N-] (stereo not given in full) | > 100 | > 100 | > 100 | > 100 | > 100 | > 100 | > 100 | > 100 | > 100 | > 100 | > 100 | > 100 | > 100 | > 100 | > 100 | > 100 | > 100 | > 100 | – | – |
| CCOC(=O)c1c2ccccc2n2c(=O)n(C)nnc12 | – | – | > 100 | – | – | > 100 | > 100 | > 100 | – | > 100 | > 100 | – | – | > 100 | – | > 100 | – | – | > 100 | – |
| C[C@H](C(=O)N1C(=O)O[C@@H](c2ccccc2)[C@H]1C)[C@H](c1ccccc1)N(Cc1ccccc1)OC(=O)c1ccccc1 | – | – | > 100 | – | – | > 100 | > 100 | 73.7 | – | > 100 | > 100 | – | – | > 100 | – | > 100 | – | – | > 100 | – |
| COc1ccc(C(F)(F)F)cc1NC(=O)O/N=C(/Cl)C(C)C | – | – | 6.05 | – | – | 44.4 | 39.1 | 35.6 | – | 28.4 | 3.18 | – | – | 37 | – | 3.99 | – | – | > 78.3 | – |
| CCOC(=O)NC(=O)c1cn(-c2ccc(CCOC(=O)CCCCCCCCC(=O)OCCc3ccc(-n4cc(C(=O)NC(=O)OCC)c(=O)[nH]c4=O)cc3)cc2)c(=O)[nH]c1=O | > 100 | > 100 | > 100 | > 100 | > 100 | – | > 100 | > 100 | > 100 | > 100 | – | > 100 | > 100 | > 100 | – | > 100 | > 100 | > 100 | – | – |
| C/C(=N\O)C(CN(C)C)C(c1ccccc1)c1c(O)c2ccccc2oc1=O (stereo not given) | – | – | > 100 | > 100 | > 100 | > 100 | > 100 | > 100 | > 100 | > 100 | > 100 | > 100 | > 100 | > 100 | > 100 | > 100 | > 100 | > 100 | – | – |
| C/C(=N/NC(=S)Nc1cccc(Cl)c1)c1cccc(/C(C)=N\NC(=S)Nc2cccc(Cl)c2)n1 | – | – | 15.9 | – | – | 40.8 | > 85.8 | > 43.9 | – | > 100 | > 48.1 | – | – | 3.72 | – | > 40.4 | – | – | > 74.6 | – |
| c1ccc(N=C2SC(c3ccccc3)CN2C23CC4CC(CC(C4)C2)C3)cc1 (stereo not given) | – | – | > 100 | – | – | > 100 | > 100 | > 100 | – | > 100 | > 100 | – | – | > 100 | – | > 100 | – | – | > 100 | – |
| COC(=O)C(=O)C(C(=O)C(=O)Nc1ccc([N+](=O)[O-])cc1C#N)c1nc2ccc([N+](=O)[O-])cc2[nH]c1=O (stereo not given) | > 100 | – | > 100 | > 100 | > 100 | > 100 | > 100 | > 100 | > 100 | > 100 | > 100 | – | > 100 | > 100 | > 100 | > 100 | > 100 | > 100 | – | – |
| CCOP(=O)(C/C(=N/NC(C)(C)C)C(=O)Nc1nc2ccc(C)cc2s1)OCC | > 100 | > 100 | – | > 100 | > 100 | > 100 | > 100 | > 100 | > 100 | > 100 | > 100 | > 100 | > 100 | > 100 | > 100 | > 100 | > 100 | – | – | – |
| CC(=O)OCC1OC(Sc2nc(-c3ccc(C)cc3)c(C#N)c(=O)n2C2OC(COC(C)=O)C(OC(C)=O)C(OC(C)=O)C2OC(C)=O)C(OC(C)=O)C(OC(C)=O)C1OC(C)=O (stereo not given) | – | – | > 100 | – | – | > 100 | > 100 | > 100 | – | > 100 | > 100 | – | – | > 100 | – | > 100 | – | – | > 100 | > 100 |
| CN(C)CC1CCC(CN(C)C)C1=NO (stereo not given) | > 100 | – | > 100 | > 100 | > 100 | > 10 | > 100 | – | > 100 | > 100 | > 100 | – | > 100 | > 100 | > 100 | > 100 | > 100 | > 100 | – | – |
| COC(=O)c1ccc(NCc2cc(O)c3ccccc3c2O)cc1 | – | – | 15.1 | – | – | 56.6 | 50.9 | 43.2 | – | 39.1 | 13.4 | – | – | 28.6 | – | 6.97 | – | – | 98.2 | – |
| N#C/C(=C\N1CCNC1=S)C(=O)c1ccc2ccccc2c1 | – | – | > 100 | – | – | > 100 | > 100 | > 100 | – | > 100 | > 100 | – | – | > 100 | – | > 100 | – | – | > 100 | – |
